# Laboratory results: patent publication US20260217863A1, “ANTIBODY OR PEPTIDE BINDING SPECIFICALLY TO RNASE A, IMMUNOASSAY DEVICE AND METHOD FOR DETECTING RNASE A, AND METHOD FOR COLLECTING RNASE A” (UIF (University Industry Foundation), Yonsei University, priority 2022, published 2026)
# Where no end group is shown, it is not given here.
# Target: T1, RNase A (Bos taurus, UniProt P61823)
# T1 sequence (P61823 27-150): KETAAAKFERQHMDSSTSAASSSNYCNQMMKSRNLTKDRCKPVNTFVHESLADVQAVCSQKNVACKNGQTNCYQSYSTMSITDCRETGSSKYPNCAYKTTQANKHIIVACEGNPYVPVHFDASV
# Assay: RNA cleavage assay with total RNA from HeLa cells, agarose gel imaging
# Format: biochemical, bovine
# Parameters: Ribonuclease A (Type II-A) from bovine pancreas; purchased Sigma-Aldrich Korea; host or cells: bovine pancreas
# Details: RNase 0.7 μg/ml, agarose gel image analysis, read-out: IC50 for RNase A activity inhibition
# Description: The analysis of RNase inhibitory activity of Fv antibodies and synthetic peptides was performed using RNA samples extracted from HeLa cells as follows: (1) Mixing the RNA sample extracted from HeLa cells (600 ng) with 87.5 nM-5.6 μM under conditions of 37° C. for 30 minutes, (2) Electrophoresis on a 1% agarose gel at 90 V for 40 minutes. The estimation of RNase inhibitory activity was carried out by gel imaging of the cleaved RNA using a ChemiDoc XPS (Bio-Rad, CA, USA).
# (§1) Using RNA samples extracted from HeLa cells, the RNase inhibitory activity of the synthesized peptides was estimated. The RNase inhibitory activity was assessed using agarose gel imaging of the cleaved RNA. To optimize the RNase concentration for the RNase inhibition assay, total RNA was treated with RNase A (600 ng), with RNase A concentrations ranging from 5.7 ng/ml to 3.6 μg/ml, and the cleaved RNA bands were observed after treatment with ETBR (ethidium bromide). […] The RNase concentration for inhibition analysis was determined to be 0.7 μg/ml, with RNase concentrations above 3.6 μg/ml. The inhibition analysis was performed by mixing total RNA from HeLa cells with RNase (0.7 μg/ml) and Fv-antibody at a concentration of 10 μM, resulting in the observation that the entire RNA was completely cleaved into small RNA bands in the absence of the Fv-antibody. […] The optimal concentration of the Fv-antibody for RNase inhibition was determined by the cleavage reaction with total RNA in the concentration range of 87.5 nM to 5.6 μM for Fv-antibodies (Fv-1, Fv-2, Fv-3).
# The analysis of RNase inhibitory activity of Fv antibodies and synthetic peptides was performed using RNA samples extracted from HeLa cells as follows: (1) A mixture of RNA samples extracted from HeLa cells (600 ng) was prepared at concentrations of 87.5 nM-5.6 μM and incubated at 37° C. for 30 minutes; (2) Electrophoresis was conducted in a 1% agarose gel under 90 V for 40 minutes. The estimation of RNase inhibitory activity was carried out by gel imaging of the cleaved RNA using a ChemiDoc XPS (Bio-Rad, CA, USA).
# as §1, with “the” for “the concentration”
row,IC50 [nM],Sequence
1,995,CGPDSDVMTDF [Peptide-1]
2,464,DGTAKKSRKDD [Peptide-3]

row,Sequence,IC50 [nM]
1,YGPVGRVKRDD [Peptide-2],658
